This note sets out measurements from patent US12636370B2, “Combination therapy for treatment of cancer” (Institute For Cancer Research, priority 2019, dated 2026).

Some results are limits rather than exact numbers.

Assay type in all cases: cell-based
One assay concerns BRD2, BRD3 or BRD4 RNA. The assay is described as follows: qRT-PCR of BRD RNA levels, OVCAR8 MZ1-R cells. The settings on record: 1 μM, 48 hours. On the technique in general: Quantitative PCR measures a nucleic acid by following its amplification.
Another assay has as its system BET proteins, FOSL1, MYC. Kind of assay: Western blot of BET proteins and BRD4 targets, JQ1-R cells.
The test system of another assay is OVCAR8 Thal-R cells. The assay is described as follows: CellTiter-Glo cell viability, OVCAR8 Thal-R cells. The conditions noted are these: OVCAR8, escalating doses, 5 days. On the procedure: (§1) Chronic exposure of OVCAR8 cells to CDK9 PROTAC (Thal SNS 032) sensitized cells to RAD001 or GSK1904529A. […] Moreover, these studies show both BET PROTACs and CDK9 PROTACs elicit a similar dependency on MTOR signaling to promote drug resistance. […] OVCAR8 cells were treated with escalating doses of Thal SNS 032 and CDK9 protein levels were determined by Western blot (FIG. 15A). […] (FIG. 15B). […] Thal-R inhibitor treated cell viabilities were normalized to DMSO treated Thal-R cells. Combination therapies involving GSK529A or RAD001 and Thal SNS 032 improved growth repression of OVCAR8 cells. OVCAR8 cells were treated with 100 nM Thal SNS 032, escalating doses of GSK529A or RAD001, or the combination of Thal SNS 032 and kinase inhibitors, for 5 days and cell viability was assessed by CellTiter-Glo (FIGS. 15F and 15G).
Background: Cellular ATP, detected with luciferase, serves as a proxy for viable cell number.

Assay [1] concerns KURAMOCHI, COV362 and OVCAR5 MZ1-R cells. The assay is described as follows: CellTiter-Glo cell viability, KURAMOCHI, COV362 and OVCAR5 MZ1-R cells. The settings on record: COV362 and OVCAR5, escalating doses, 5 days.
Assay [2] relates to OVCAR8 MZ1-R cells. The assay is described as follows: Apoptosis by Western blot, OVCAR8 MZ1-R cells.
For assay [3], the system named is BET proteins (BRD2, BRD3, BRD4). The assay is described as follows: Western blot of BET protein levels, OVCAR8 parental cells. (A western blot detects proteins with antibodies after separation by electrophoresis.)
The subject of a further assay is OVCAR8 ARV-R cells. The assay is described as follows: CellTiter-Glo cell viability, OVCAR8 ARV-R cells. The settings on record: escalating doses, 5 days.
Another assay deals with OVCAR5 JQ1-R cells. The assay is described as follows: Growth curves, OVCAR5 JQ1-R cells.
Assay [4] relates to INSR and downstream MTOR, AKT and MAPK signaling. The assay is described as follows: Kinase signaling in BBD-R cells (MIB-MS, phospho-blot). The conditions noted are these: for phosphorylation of P70S6K (T359): BBD-R cells (MZ1-R, ARV-R), 4 hours. On the procedure:
Reduced MIB-binding of kinases involved in cell cycle (WEE1, CHEK1, CDK2, CDK6 and PLK1), as well as kinases required for translation (EIF2AK1, EIF2AK2, and EIF2AK4) were also observed following GSK529A treatment. […] Enrichment maps of pathways repressed by INSR inhibition generated from MIB-MS profiles of OVCAR8 cells treated with GSK529A (1 μM) treatment for 48 hours. Statistical differences in protein log 2 LFQ z-scores comparing GSK529A to control treated MZ1-R cells was determined by paired T-Test Benjamini- Hochberg adjusted p values at FDR of <0.05 using Perseus Software. […] Enrichment maps were generated in Cytoscape using the Enrichment Map app v2.2.1. (data not shown).

Assay [5] deals with OVCAR8 MZ1-R cells. The assay is described as follows: CellTiter-Glo cell viability, OVCAR8 MZ1-R cells. The settings on record: escalating doses, 5 days; for sensitivity of MZ1-R cells relative to JQ1-R cells or parental cells: OVCAR8, inhibitor screen.
The subject of assay [6] is OVCAR8 parental, MZ1-R or ARV-R. Kind of assay: 14-day colony formation assay, crystal violet staining. The settings on record: ARV-R or MZ1-R vs parental OVCAR8, 14-day. On the procedure: Parental, JQ1-R or MZ1-R OVCAR8 cells were treated with escalating doses of MK2206 for 5 days and cell viability assessed by CellTiter-Glo. MZ1-R or JQ1-R inhibitor treated cell viabilities normalized to DMSO treated JQ1-R or MZ1-R cells, respectfully (FIG. 11J). […] Parental, JQ1-R or MZ1-R OVCAR8 cells were treated with escalating doses of LP-935509 for 5 days and cell viability assessed by CellTiter-Glo. MZ1-R or JQ1-R inhibitor treated cell viabilities normalized to DMSO treated JQ1-R or MZ1-R cells, respectfully (FIG. 11K). […] Long-term 14-day colony formation assay of OVCAR8 parental, MZ1-R or ARV-R were treated with escalating doses of GSK529A or DMSO. Colony formation was assessed by crystal violet staining (FIG. 11L).

Assay [7] relates to BET proteins (BRD2, BRD4). Kind of assay: Western blot of BET proteins, KURAMOCHI, COV362 and OVCAR5 MZ1-R cells.
Assay [8] concerns the target T1, CDK9 (Homo sapiens, UniProt P50750).
T1 construct: OVCAR8 cells were treated with escalating doses of Thal SNS 032 and CDK9 protein levels were determined by Western blot; endogenous in cells; host or cells: OVCAR8 parental and Thal-R cells
The assay is described as follows: Western blot of CDK9 protein levels, OVCAR8 Thal-R cells. The settings on record: Thal 500 nM or 2 μM kinase inhibitor, 4 hours. How it is done: OVCAR8 cells were treated with escalating doses of Thal SNS 032 and CDK9 protein levels were determined by Western blot (FIG. 15A). […] Thal-R inhibitor treated cell viabilities were normalized to DMSO treated Thal-R cells. […] OVCAR8 cells were treated with 100 nM Thal SNS 032, escalating doses of GSK529A or RAD001, or the combination of Thal SNS 032 and kinase inhibitors, for 5 days and cell viability was assessed by CellTiter-Glo (FIGS. 15F and 15G).

In assay [9] the test system is BET proteins (BRD2, BRD3, BRD4). Kind of assay: Western blot of BET proteins and BRD4 targets, OVCAR8 MZ1-R cells. The conditions noted are these: for BET protein levels: Western blot.
Assay [10] shares this test system. The assay is described as follows: Western blot of BET proteins, OVCAR8 ARV-R cells.
Assay [11] relates to DLD-1 cells. The assay is described as follows: Spheroid assay, DLD-1 cells. The conditions noted are these: 2 μM RAD001, 1 nM dBET6. How it is done: Data were analyzed as % cell viability of DMSO control, presented as means of 3 independent assays.
The subject of the next assay is KURAMOCHI cells. Kind of assay: Combination cell viability, KURAMOCHI cells, CellTiter-Glo. The conditions noted are these: 100 nM, 5 days. From the text: The proposed model of the protection of BRD4 from PROTAC-degradation by MTOR signaling in ovarian cancer cells is shown in FIG. 7J. PROTAC-mediated degradation of BRD4 induces RTK signaling resulting in increased MTOR signaling which prevents the degradation of BRD4 in cells resistant to BET PROTACs.

The target of assay [12] is T1, CDK9. The assay is described as follows: Western blot of CDK9 protein levels, OVCAR8 cells. The conditions noted are these: escalating doses. On the procedure:
as §1

For assay [13], the system named is DLD-1 cells. The assay is described as follows: Cell-Titer Glo cell viability and drug synergy, DLD-1 cells. On the procedure: Blockade of MTORC1 signaling sensitizes cancer cells resistant to BET-PROTACs. […] Data were analyzed as % cell viability of DMSO control, presented as means of 3 independent assays.

The term GI50 denotes the concentration that inhibits growth by half.

T1 sequence (P50750 whole entry): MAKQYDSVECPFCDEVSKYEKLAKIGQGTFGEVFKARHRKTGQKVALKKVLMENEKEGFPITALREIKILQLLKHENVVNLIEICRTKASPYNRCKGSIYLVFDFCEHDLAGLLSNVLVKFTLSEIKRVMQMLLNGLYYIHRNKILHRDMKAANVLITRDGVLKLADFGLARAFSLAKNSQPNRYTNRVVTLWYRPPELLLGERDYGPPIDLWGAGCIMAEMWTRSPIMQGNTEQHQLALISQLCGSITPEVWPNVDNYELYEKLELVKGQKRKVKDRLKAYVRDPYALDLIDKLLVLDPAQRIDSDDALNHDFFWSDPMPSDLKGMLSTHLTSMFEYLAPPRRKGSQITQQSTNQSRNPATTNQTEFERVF
T1 sequence (O60563 whole entry partner): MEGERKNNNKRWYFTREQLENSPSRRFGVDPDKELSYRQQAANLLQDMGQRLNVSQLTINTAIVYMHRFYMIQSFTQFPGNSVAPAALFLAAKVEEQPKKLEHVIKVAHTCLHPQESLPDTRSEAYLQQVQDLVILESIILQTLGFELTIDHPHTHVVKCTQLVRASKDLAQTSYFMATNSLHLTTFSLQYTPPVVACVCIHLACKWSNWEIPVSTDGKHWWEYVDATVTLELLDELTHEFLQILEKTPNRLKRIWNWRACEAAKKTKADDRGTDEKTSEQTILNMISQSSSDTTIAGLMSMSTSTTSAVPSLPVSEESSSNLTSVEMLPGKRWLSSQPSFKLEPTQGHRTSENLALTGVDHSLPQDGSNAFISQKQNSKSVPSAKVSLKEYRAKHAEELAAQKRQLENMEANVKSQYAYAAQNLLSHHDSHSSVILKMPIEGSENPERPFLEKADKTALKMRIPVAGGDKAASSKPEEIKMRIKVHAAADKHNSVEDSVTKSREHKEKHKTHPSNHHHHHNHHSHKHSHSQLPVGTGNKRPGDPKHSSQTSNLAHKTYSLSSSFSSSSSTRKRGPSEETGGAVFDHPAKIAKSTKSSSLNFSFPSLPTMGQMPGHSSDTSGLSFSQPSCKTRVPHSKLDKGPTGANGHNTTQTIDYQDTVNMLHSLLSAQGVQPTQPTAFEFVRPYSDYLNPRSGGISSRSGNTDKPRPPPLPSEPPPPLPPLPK

Regarding `CCc1cc(Nc2nccc(-c3c(-c4ccc(OC)c(C(=O)Nc5c(F)cccc5F)c4)nc4ccccn34)n2)c(OC)cc1N1CCC(N2CCN(S(C)(=O)=O)CC2)CC1` [GSK1904529A], the “BRD2, BRD3 or BRD4 RNA levels” value in the assay with BRD2, BRD3 or BRD4 RNA is reported as “unaffected”. The BET protein levels entry was “did not reduce BET protein levels” in the assay on BET proteins, FOSL1, MYC; “did not reduce BET protein levels” in assay [3]; “reduced BRD2 and BRD4 proteins” in [7]; “significantly reduced” in assay [9]. Further, the “sensitivity of Thal-R cells relative to parental cells” value with OVCAR8 Thal-R cells is given as “more sensitive”. The “cell viability / growth of MZ1-R cells compared with parental cells” value in [1] is listed as “significantly blocked cell growth to a greater extent than parental cells”. For the same molecule, the apoptosis entry with OVCAR8 MZ1-R cells [2] is “induction of apoptosis”. Further, the “cell viability of ARV-R cells compared with parental cells” value in the assay with OVCAR8 ARV-R cells is listed as “reduced cell viability more than in parental cells”. For the same molecule, the growth inhibition result with OVCAR5 JQ1-R cells is recorded as “minimal growth inhibition”. In [4] (1 μM), the “phosphorylation of P70S6K (T359)” value is “reduced MTOR-mediated phosphorylation of P70S6K (T359)”. Besides, in [4] (OVCAR8 MZ1-R cells, 1 μM, 48 hours, MIB-MS), the “kinase MIB-binding” value was “reduced MIB-binding of drug targets INSR and IGF1R”. Moreover, the “kinase activity by phospho-blot” value in assay [4] (OVCAR8 MZ1-R cells, escalating doses, 48 hours) was “Inhibition of INSR/IGF1R, MTOR, P70S6K, BRAF and ERK activity”. The “sensitivity of MZ1-R cells relative to JQ1-R cells or parental cells” value in the assay on OVCAR8 MZ1-R cells [5] was “more sensitive”. In addition, the colony formation result in assay [6] is “inhibited colony formation to a greater extent than parental cells”. The CDK9 protein levels entry on CDK9 [8] is “downregulation of CDK9”. The MYC protein levels entry in [9] (escalating doses, 48 hours) is “dose dependent reduction in MYC protein levels”.

Consider `CO[C@H]1C[C@@H]2CC[C@@H](C)[C@@](O)(O2)C(=O)C(=O)N2CCCC[C@H]2C(=O)O[C@H]([C@H](C)C[C@@H]2CC[C@@H](OCCO)[C@H](OC)C2)CC(=O)[C@H](C)/C=C(\C)[C@@H](O)[C@@H](OC)C(=O)[C@H](C)C[C@H](C)/C=C/C=C/C=C/1C` [RAD001], for which, in the assay on BRD2, BRD3 or BRD4 RNA, the “BRD2, BRD3 or BRD4 RNA levels” value is listed as “unaffected”. Besides, the BET protein levels entry in assay [10] is “reduced BRD2 and BRD4 levels”; in [7] it was “reduced BRD2 and BRD4 proteins”; in [9], “reduced BRD2 and BRD4 levels”. For the same molecule, in the assay on OVCAR8 Thal-R cells, the “sensitivity of Thal-R cells relative to parental cells” value is listed as “more sensitive”. Moreover, the “cell viability / growth of MZ1-R cells compared with parental cells” value in [1] is reported as “significantly blocked cell growth to a greater extent than parental cells”. Also, the “cell viability of ARV-R cells compared with parental cells” value in the assay on OVCAR8 ARV-R cells was “reduced cell viability more than in parental cells”. Further, the “spheroid growth in 3D assays” value in the assay with DLD-1 cells [11] was “ineffective”. The “cell viability / growth inhibition” value in the assay on KURAMOCHI cells was “less effective”. Further, the growth inhibition result in the assay with OVCAR5 JQ1-R cells is recorded as “minimal growth inhibition”. Besides, the “phosphorylation of P70S6K (T359)” value in assay [4] (1 μM) is reported as “reduced MTOR-mediated phosphorylation of P70S6K (T359)”. Besides, the “phosphorylated RNA pol II (S2)” value in assay [4] (OVCAR8 MZ1-R cells, 48 hour RAD001 treatment, with or without bortezomib) is “inhibition of phosphorylated RNA pol II (S2)”. Also, the “sensitivity of MZ1-R cells relative to JQ1-R cells or parental cells” value in the assay with OVCAR8 MZ1-R cells [5] was “more sensitive”. Further, the CDK9 protein levels result at CDK9 [8] is “downregulation of CDK9”.

Take `CC(C)(C)c1cnc(CSc2cnc(NC(=O)C3CCN(CC(=O)NCCOCCOCCOCCNc4cccc5c4C(=O)N(C4CCC(=O)NC4=O)C5=O)CC3)s2)o1` (stereo not drawn) [Thal SNS 032]: the CDK9 protein levels result at CDK9 [12] is “reduction of CDK9 protein levels”; on CDK9 [8], “failed to degrade CDK9”.

As to `Cc1sc2c(c1C)C(c1ccc(Cl)cc1)=N[C@@H](CC(=O)NCCCCCCCCNC(=O)COc1cccc3c1C(=O)N(C1CCC(=O)NC1=O)C3=O)c1nnc(C)n1-2` (stereo partly drawn) [dBET6], in the assay on DLD-1 cells [13], the GI50 is more than 1000 nM. Further, the apoptosis entry in the assay on OVCAR8 MZ1-R cells [2] was “promoted apoptosis”. In the assay with OVCAR8 ARV-R cells, the “cell viability of ARV-R cells compared with parental cells” value is listed as “cross resistance”. Moreover, the “spheroid growth in 3D assays” value in the assay with DLD-1 cells [11] is recorded as “ineffective”. Besides, the “cell viability / growth inhibition” value with KURAMOCHI cells is “less effective”. Moreover, the “cell viability of MZ1-R cells compared with parental cells” value in the assay with OVCAR8 MZ1-R cells [5] (OVCAR8 MZ1-R) was “inhibited cell viability”.
